Source: ChEMBL document CHEMBL2321869, “Ion channels as therapeutic targets: a drug discovery perspective” (J Med Chem, 2013)

Columns and labels:
[1] = organism: Rattus norvegicus; experiment: Selectivity ratio of EC50 for AMPA receptor in rat hippocampal neurons to EC50 for AMPA receptor in rat DRG neurons; type: tissue-based; details: Hippocampus
[2] = Agonist activity at AMPA receptor in rat DRG neurons by patch clamp technique; details: DRG neuron
[3] = molecular target: Voltage-gated potassium channel KCNC1 (Rattus norvegicus, UniProt P25122); experiment: Inhibition of rat voltage-gated K channel 3.1 expressed in CHO cells by patch clamp assay; type: cell-based
[4] = molecular target: Potassium voltage-gated channel subfamily KQT member 5 (Homo sapiens, UniProt Q9NR82); experiment: Positive modulatory activity at voltage-gated K channel 7.5 (unknown origin)
[5] = molecular target: Potassium voltage-gated channel subfamily KQT member 3 (Homo sapiens, UniProt O43525); experiment: Positive modulatory activity at voltage-gated K channel 7.3 (unknown origin)
[6] = molecular target: Potassium voltage-gated channel subfamily KQT member 2 (Homo sapiens, UniProt O43526); experiment: Positive modulatory activity at voltage-gated K channel 7.2 (unknown origin)
[7] = molecular target: Potassium voltage-gated channel subfamily KQT member 4 (Homo sapiens, UniProt P56696); experiment: Positive modulatory activity at voltage-gated K channel 7.4 (unknown origin)
[8] = molecular target: Calcium-activated potassium channel subunit alpha-1 (Homo sapiens, UniProt Q12791); experiment: Positive modulation of Kca 1.1 (unknown origin)
[9] = organism: Mus musculus; experiment: Selectivity ratio of EC50 for mouse voltage-gated K channel 1.3 to EC50 for mouse voltage-gated K channel 1.7
[10] = Selectivity ratio of EC50 for mouse voltage-gated K channel 1.3 to EC50 for rat voltage-gated K channel 1.2
[11] = Selectivity ratio of EC50 for mouse voltage-gated K channel 1.3 to EC50 for human voltage-gated K channel 1.4
[12] = organism: Mus musculus; experiment: Selectivity ratio of EC50 for mouse voltage-gated K channel 1.3 to EC50 for mouse voltage-gated K channel 1.1
[13] = molecular target: Potassium channel subfamily K member 3 (Homo sapiens, UniProt O14649); experiment: Inhibition of TASK-1 (unknown origin)
[14] = molecular target: Inward rectifier potassium channel 4 (Homo sapiens, UniProt P48050); experiment: Inhibition of Kir2.3 (unknown origin)
[15] = molecular target: T1, Gamma-aminobutyric acid receptor subunit alpha-2 (Homo sapiens) (UniProt P47869); experiment: Positive allosteric modulation of GABAA alpha2 (unknown origin) relative to control
T1 sequence (whole entry): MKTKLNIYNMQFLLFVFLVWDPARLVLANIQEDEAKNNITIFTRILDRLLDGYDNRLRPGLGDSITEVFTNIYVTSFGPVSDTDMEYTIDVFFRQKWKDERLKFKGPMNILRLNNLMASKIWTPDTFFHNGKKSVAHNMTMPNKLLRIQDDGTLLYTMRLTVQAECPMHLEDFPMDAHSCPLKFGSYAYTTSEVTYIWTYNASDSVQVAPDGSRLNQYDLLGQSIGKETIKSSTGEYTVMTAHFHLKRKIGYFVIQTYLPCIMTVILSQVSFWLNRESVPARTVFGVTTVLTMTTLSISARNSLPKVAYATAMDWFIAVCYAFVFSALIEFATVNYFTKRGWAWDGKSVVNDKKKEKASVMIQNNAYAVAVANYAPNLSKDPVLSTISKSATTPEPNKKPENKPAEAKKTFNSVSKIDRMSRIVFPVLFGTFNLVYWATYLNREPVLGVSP

[16] = molecular target: T2, Gamma-aminobutyric acid receptor subunit alpha-1 (Homo sapiens, UniProt P14867); experiment: Positive allosteric modulation of GABAA alpha1 (unknown origin)
T2 sequence (P14867 whole entry): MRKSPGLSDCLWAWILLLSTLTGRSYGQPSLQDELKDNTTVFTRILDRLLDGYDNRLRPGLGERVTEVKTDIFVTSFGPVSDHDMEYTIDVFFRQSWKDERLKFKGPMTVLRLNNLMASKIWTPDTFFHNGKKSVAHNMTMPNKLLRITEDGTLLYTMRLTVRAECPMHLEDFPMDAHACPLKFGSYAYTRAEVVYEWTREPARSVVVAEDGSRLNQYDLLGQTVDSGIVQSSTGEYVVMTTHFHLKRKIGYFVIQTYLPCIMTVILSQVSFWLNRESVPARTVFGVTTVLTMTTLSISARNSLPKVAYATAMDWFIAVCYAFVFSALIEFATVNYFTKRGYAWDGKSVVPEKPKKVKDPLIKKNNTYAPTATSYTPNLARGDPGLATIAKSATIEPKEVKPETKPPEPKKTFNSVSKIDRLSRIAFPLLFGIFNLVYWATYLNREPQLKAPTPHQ

[17] = molecular target: T3, Gamma-aminobutyric acid receptor subunit alpha-2 (Homo sapiens, UniProt P47869); experiment: Positive allosteric modulation of GABAA alpha2 (unknown origin)
T3 sequence (P47869 whole entry): T1 sequence (whole entry)

[18] = molecular target: T4, Gamma-aminobutyric acid receptor subunit alpha-3 (Homo sapiens, UniProt P34903); experiment: Positive allosteric modulation of GABAA alpha3 (unknown origin)
T4 sequence (P34903 whole entry): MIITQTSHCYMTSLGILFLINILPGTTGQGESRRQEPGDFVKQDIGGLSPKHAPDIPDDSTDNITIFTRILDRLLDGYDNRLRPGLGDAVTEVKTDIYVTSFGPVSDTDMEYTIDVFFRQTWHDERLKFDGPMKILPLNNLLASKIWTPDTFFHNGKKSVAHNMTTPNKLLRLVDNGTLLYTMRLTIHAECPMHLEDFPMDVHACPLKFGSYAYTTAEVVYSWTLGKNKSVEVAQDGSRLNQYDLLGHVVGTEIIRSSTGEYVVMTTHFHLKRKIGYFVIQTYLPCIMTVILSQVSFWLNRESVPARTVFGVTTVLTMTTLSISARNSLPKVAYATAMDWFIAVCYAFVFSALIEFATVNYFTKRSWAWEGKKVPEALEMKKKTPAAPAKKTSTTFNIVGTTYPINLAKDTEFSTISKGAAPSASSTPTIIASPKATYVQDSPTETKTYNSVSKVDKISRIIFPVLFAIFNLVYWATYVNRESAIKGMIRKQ

[19] = organism: Homo sapiens; experiment: Selectivity ratio of IC50 for human voltage-gated Na channel 1.7 to IC50 for human voltage-gated Na channel 1.8
[20] = organism: Homo sapiens; experiment: Selectivity ratio of IC50 for human voltage-gated Na channel 1.1 to IC50 for human voltage-gated Na channel 1.8
[21] = organism: Homo sapiens; experiment: Selectivity ratio of IC50 for human voltage-gated Na channel 1.5 to IC50 for human voltage-gated Na channel 1.8
[22] = molecular target: T5, Gamma-aminobutyric acid receptor subunit alpha-5 (Homo sapiens, UniProt P31644); experiment: Positive allosteric modulation of GABAA alpha5 (unknown origin)
T5 sequence (P31644 whole entry): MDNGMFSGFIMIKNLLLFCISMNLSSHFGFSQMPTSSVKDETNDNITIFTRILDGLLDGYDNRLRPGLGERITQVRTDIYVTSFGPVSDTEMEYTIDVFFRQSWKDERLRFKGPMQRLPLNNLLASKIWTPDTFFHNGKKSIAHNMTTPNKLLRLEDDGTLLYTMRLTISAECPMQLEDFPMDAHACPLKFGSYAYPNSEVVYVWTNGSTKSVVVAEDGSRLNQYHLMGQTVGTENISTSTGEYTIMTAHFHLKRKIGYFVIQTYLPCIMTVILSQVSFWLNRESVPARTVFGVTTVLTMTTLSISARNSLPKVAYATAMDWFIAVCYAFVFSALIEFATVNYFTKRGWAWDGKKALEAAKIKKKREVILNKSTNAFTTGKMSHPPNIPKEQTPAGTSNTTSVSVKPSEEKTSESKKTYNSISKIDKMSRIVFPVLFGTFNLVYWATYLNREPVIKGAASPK

[23] = organism: Rattus norvegicus; experiment: Selectivity ratio of EC50 for AMPA receptor in rat DRG neurons to EC50 for AMPA receptor in rat hippocampal neurons; type: tissue-based; details: Hippocampus
[24] = Agonist activity at AMPA receptor in rat hippocampal neurons by patch clamp technique; type: tissue-based; details: Hippocampus
[25] = Blockade of ASIC (unknown origin); set-up: species or system Homo sapiens
[26] = molecular target: Inward rectifier potassium channel 2 (Mus musculus, UniProt P35561); experiment: Inhibition of mouse Kir2.1 expressed in HEK293 cells by patch clamp technique; type: cell-based
[27] = molecular target: Small conductance calcium-activated potassium channel protein 3 (Homo sapiens, UniProt Q9UGI6); experiment: Inhibition of human Kca 2.3 expressed in HEK293 cells by patch clamp technique; type: cell-based
[28] = molecular target: P2X2/P2X3 heterotrimeric receptor (Homo sapiens, UniProt P56373+Q9UBL9); experiment: Antagonist activity at human P2X2/3 receptor; type: protein-complex assay
[29] = molecular target: Acid-sensing ion channel 3 (Rattus norvegicus, UniProt O35240); experiment: Inhibition of ASIC3 in rat DRG neurons
[30] = molecular target: Transient receptor potential cation channel subfamily V member 4 (Homo sapiens, UniProt Q9HBA0); experiment: Inhibition of TRPV4 (unknown origin)
[31] = molecular target: Neuronal acetylcholine receptor; alpha4/beta2 (Homo sapiens, UniProt P17787+P43681); experiment: Agonist activity at human alpha4beta2 nAChR expressed in HEK293 cells incubated for 5 mins measured every second for 1 mins followed by every 5 secs for 4 mins by calcium flux assay; type: cell-based
[32] = molecular target: T6, Potassium channel subfamily K member 2 (Homo sapiens, UniProt O95069); experiment: Inhibition of human TREK-1 expressed in HEK293 cells by patch-clamp technique; type: cell-based
[33] = molecular target: T7, Glutamate receptor ionotropic, kainate 1 (Homo sapiens, UniProt P39086); experiment: Agonist activity at GluK1 (unknown origin)
[34] = molecular target: Gamma-aminobutyric acid receptor subunit alpha-5 (Homo sapiens) (UniProt P31644); experiment: Positive allosteric modulation of GABAA alpha5 (unknown origin) relative to control
[35] = molecular target: Gamma-aminobutyric acid receptor subunit alpha-3 (Homo sapiens) (UniProt P34903); experiment: Positive allosteric modulation of GABAA alpha3 (unknown origin) relative to control
[36] = Inhibition of AMPA receptor (unknown origin); set-up: species or system Homo sapiens
[37] = molecular target: T7, Glutamate receptor ionotropic, kainate 1; experiment: Inhibition of GluK1 receptor (unknown origin)
[38] = molecular target: Gamma-aminobutyric acid receptor subunit alpha-1 (Homo sapiens) (UniProt P14867); experiment: Positive allosteric modulation of GABAA alpha1 (unknown origin) relative to control
[39] = molecular target: T6, Potassium channel subfamily K member 2; experiment: Inhibition of TREK-1 (unknown origin)

T7 sequence (P39086 whole entry): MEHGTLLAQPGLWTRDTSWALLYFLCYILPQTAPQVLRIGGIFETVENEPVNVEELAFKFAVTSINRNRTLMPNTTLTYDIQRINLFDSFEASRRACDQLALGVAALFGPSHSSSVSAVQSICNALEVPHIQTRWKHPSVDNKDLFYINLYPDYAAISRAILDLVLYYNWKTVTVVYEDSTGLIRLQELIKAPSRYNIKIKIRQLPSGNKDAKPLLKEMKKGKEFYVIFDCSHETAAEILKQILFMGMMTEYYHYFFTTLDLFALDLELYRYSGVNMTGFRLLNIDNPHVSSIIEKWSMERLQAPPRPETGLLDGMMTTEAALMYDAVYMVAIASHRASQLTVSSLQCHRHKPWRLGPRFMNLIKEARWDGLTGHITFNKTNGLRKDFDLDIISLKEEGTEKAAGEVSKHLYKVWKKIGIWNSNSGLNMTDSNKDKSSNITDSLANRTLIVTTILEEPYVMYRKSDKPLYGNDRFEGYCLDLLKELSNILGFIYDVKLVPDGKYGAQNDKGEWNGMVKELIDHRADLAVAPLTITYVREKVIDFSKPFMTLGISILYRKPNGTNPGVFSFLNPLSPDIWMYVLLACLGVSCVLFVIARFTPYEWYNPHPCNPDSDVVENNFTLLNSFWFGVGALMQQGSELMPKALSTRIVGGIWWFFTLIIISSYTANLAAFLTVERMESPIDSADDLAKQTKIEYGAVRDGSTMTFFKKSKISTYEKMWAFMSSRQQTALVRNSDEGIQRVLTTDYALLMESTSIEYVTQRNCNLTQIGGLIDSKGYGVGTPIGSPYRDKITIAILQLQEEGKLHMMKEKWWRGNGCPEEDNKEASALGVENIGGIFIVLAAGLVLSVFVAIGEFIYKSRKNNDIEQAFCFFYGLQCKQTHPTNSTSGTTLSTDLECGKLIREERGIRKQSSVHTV
Sequence of P2X2/P2X3 heterotrimeric receptor (Q9UBL9 whole entry): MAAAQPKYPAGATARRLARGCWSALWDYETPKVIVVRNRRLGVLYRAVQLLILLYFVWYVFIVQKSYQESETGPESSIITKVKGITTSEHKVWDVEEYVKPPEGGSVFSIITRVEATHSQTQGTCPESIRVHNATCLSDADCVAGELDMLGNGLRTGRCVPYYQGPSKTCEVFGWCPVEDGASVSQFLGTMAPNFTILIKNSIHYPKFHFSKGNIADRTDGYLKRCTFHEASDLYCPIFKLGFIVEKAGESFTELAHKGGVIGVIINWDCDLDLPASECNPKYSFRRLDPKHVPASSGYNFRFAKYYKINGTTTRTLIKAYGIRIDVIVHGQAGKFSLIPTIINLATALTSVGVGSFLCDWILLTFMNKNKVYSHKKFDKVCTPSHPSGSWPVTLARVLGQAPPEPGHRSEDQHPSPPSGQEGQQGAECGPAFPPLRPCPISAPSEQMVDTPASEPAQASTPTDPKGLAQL
Sequence of P2X2/P2X3 heterotrimeric receptor (P56373 whole entry): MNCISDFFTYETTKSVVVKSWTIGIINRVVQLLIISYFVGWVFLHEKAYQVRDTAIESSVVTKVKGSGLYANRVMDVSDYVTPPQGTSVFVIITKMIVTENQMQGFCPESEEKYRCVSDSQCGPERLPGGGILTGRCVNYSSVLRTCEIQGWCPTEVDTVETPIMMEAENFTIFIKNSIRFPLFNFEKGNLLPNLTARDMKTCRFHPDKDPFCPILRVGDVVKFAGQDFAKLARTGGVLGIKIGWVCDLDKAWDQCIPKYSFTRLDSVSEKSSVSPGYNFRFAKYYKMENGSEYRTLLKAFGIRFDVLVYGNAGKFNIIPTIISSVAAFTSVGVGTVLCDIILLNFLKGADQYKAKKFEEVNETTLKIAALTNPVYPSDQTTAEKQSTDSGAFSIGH
T6 sequence (O95069 whole entry): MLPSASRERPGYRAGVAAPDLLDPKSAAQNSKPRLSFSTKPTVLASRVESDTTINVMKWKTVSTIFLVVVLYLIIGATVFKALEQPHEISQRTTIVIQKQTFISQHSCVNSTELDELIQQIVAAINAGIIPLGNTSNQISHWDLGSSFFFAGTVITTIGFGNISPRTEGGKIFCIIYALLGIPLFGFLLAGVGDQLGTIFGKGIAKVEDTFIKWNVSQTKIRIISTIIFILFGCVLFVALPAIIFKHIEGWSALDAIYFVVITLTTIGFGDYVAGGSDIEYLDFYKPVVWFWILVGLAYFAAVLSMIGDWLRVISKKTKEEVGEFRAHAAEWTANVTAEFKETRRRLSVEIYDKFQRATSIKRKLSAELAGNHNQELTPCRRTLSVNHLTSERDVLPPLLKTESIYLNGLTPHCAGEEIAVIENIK
Sequence of Voltage-gated potassium channel KCNC1 (P25122 whole entry): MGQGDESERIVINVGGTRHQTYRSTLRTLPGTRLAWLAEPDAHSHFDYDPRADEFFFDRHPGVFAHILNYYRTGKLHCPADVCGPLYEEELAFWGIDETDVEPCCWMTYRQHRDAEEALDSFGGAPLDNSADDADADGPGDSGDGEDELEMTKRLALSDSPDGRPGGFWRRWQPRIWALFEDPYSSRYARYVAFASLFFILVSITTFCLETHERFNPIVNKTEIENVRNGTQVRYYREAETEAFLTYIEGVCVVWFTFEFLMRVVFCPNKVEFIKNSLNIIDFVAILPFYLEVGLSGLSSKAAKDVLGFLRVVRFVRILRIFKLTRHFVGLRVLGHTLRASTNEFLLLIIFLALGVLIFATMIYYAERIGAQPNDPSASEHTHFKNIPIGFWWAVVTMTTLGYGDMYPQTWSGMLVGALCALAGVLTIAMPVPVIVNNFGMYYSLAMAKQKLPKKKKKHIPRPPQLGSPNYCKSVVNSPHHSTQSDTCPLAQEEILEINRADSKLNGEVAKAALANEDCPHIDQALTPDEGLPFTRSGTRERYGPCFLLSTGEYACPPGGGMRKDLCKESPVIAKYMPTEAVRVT
Sequence of Potassium voltage-gated channel subfamily KQT member 3 (O43525 whole entry): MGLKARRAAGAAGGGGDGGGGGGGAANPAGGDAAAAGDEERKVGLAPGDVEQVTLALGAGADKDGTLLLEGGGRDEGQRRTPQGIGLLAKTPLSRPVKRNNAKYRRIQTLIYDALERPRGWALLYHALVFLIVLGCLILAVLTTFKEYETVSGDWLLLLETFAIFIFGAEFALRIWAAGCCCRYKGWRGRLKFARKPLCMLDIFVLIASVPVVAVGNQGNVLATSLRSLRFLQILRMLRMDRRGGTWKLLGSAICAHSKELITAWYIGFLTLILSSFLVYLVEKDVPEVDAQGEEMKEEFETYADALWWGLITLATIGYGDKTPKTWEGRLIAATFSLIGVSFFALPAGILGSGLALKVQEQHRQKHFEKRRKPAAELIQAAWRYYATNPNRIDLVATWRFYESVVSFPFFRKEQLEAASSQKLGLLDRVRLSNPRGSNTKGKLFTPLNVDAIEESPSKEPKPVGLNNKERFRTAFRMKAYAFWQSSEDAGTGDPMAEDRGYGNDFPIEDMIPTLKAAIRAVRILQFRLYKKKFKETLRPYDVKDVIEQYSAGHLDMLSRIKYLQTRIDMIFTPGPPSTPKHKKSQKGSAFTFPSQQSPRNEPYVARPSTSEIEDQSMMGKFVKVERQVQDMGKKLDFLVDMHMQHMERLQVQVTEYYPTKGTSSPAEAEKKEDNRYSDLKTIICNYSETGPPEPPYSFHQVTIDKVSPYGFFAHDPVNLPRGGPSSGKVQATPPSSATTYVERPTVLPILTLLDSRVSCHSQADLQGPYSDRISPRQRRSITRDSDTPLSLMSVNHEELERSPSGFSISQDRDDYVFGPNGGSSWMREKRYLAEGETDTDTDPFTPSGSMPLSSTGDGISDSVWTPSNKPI
Sequence of Potassium channel subfamily K member 3 (O14649 whole entry): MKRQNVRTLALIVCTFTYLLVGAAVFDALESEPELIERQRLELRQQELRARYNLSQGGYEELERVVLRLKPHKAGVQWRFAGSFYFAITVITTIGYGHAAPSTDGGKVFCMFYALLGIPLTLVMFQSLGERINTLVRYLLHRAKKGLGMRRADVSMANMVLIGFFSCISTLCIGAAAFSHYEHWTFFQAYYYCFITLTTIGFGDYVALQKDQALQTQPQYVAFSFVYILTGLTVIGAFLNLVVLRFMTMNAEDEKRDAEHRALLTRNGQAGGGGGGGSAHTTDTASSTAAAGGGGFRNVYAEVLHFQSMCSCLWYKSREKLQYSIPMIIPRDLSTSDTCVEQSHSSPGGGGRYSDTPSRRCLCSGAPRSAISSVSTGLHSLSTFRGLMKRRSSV
Sequence of Inward rectifier potassium channel 2 (P35561 whole entry): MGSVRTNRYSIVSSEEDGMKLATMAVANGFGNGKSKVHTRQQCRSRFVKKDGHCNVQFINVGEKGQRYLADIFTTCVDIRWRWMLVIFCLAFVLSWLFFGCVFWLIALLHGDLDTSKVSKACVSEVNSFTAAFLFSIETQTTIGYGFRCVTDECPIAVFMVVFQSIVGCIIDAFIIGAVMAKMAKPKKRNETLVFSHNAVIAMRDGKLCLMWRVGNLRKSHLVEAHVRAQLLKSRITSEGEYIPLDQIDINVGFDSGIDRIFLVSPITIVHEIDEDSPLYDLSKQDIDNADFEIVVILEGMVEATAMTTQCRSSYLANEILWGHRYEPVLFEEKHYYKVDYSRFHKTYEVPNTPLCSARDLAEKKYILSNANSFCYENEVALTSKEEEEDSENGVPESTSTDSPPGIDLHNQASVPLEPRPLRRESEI
Sequence of Acid-sensing ion channel 3 (O35240 whole entry): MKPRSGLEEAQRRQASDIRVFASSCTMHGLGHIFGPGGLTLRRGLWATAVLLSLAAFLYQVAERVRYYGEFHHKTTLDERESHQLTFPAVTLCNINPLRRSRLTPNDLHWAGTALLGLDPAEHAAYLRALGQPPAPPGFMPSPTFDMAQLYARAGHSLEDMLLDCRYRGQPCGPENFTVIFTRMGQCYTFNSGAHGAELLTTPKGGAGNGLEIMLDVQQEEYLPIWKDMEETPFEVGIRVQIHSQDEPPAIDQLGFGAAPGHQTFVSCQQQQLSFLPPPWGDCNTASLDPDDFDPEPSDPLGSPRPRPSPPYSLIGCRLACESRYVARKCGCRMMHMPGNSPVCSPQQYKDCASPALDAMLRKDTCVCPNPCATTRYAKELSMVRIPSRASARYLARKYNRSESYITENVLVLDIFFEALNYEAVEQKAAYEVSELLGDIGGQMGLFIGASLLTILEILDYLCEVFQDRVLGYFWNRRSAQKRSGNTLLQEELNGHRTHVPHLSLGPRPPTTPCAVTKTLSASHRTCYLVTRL

N[C@@H](Cn1cc(I)c(=O)[nH]c1=O)C(=O)O
Ratio EC50 [1]: 137 | EC50 [2]: 140 nM

NCCC(Oc1ccc(C(F)(F)F)cc1)c1ccccc1 (stereo unspecified) [NORFLUOXETINE]
IC50 [3]: 800 nM

COc1ccc(Cl)cc1[C@]1(F)C(=O)Nc2cc(C(F)(F)F)ccc21 [FLINDOKALNER]
EC50 [4]: 2400 nM | EC50 [5]: 2400 nM | EC50 [6]: 2400 nM | EC50 [7]: 2400 nM | EC50 [8]: 352 nM

O=c1ccc2c(OCCCCc3ccccc3)c3ccoc3cc2o1
Ratio EC50 [9]: 17 | Ratio EC50 [10]: 17 | Ratio EC50 [11]: 17 | Ratio EC50 [12]: 17

CCCC(=O)C1CCN(c2ncnc3c2CN(C(=O)c2ccc(-c4ccccc4)cc2)CC3)CC1
IC50 [13]: 300 nM

N=c1n(Cc2ccccc2)c2ccccc2n1CC(O)CN1CCOCC1 (stereo unspecified)
IC50 [14]: 24000 nM

Cc1csc(-c2cc(-c3ccncc3)c3n(c2=O)CCCc2ccncc2-3)n1
Activity [15]: 37% | Ki [16]: 1.3 nM | Ki [17]: 0.6 nM | Ki [18]: 0.5 nM

Cc1nocc1C(=O)Nc1ccc(-c2ccccc2OC(F)(F)F)c(N)n1
Ratio IC50 [19]: > 20 | Ratio IC50 [20]: > 20 | Ratio IC50 [21]: > 20

CCOC(=O)c1ncn2c1[C@@H]1CCCN1C(=O)c1cc(OC)ccc1-2
Ki [16]: 49 nM | Ki [22]: 0.45 nM | Ki [17]: 27 nM | Ki [18]: 25 nM

N[C@@H](Cn1cc(F)c(=O)[nH]c1=O)C(=O)O
Ratio EC50 [23]: 46 | EC50 [24]: 1500 nM

N=C(N)NC(=O)c1nc(Cl)c(N)nc1N [AMILORIDE]
IC50 [25]: 10000 nM

COc1ccc(CNCc2cccc3ccccc23)cc1
IC50 [26]: 1800 nM

Cc1ccn(-c2nc(Nc3ccc(F)cc3)c3ncn(C)c3n2)n1
EC50 [27]: 20 nM

CCc1nnnn1-c1cc(C(=O)NC(C)c2cnccn2)cc(-c2ccc(C)cc2)c1 (stereo unspecified)
IC50 [28]: 8000 nM

CC(C)C1c2cc(C3CC3c3ccc4cc(C(=N)N)ccc4c3)ccc2CCN1C (stereo unspecified)
IC50 [29]: 9500 nM

CC(C)NCCN(C(C)C)S(=O)(=O)c1ccc(Cl)cc1Cl
IC50 [30]: 2300 nM

CN[C@@H](C)C/C=C/c1cncc(OC(C)C)c1 [ISPRONICLINE]
EC50 [31]: 106 nM

CCN(CC)CC(=O)Nc1c(C)cccc1C [LIDOCAINE]
IC50 [32]: 180000 nM

CC(C)(C)c1s[nH]c(=O)c1C[C@H](N)C(=O)O
EC50 [33]: 100 nM

CNCCC(Oc1ccc(C(F)(F)F)cc1)c1ccccc1 (stereo unspecified) [FLUOXETINE]
IC50 [3]: 13100 nM

Cn1ncnc1COc1nn2c(-c3cc(F)ccc3F)nnc2cc1C(C)(C)C
Activity [34]: 36% | Activity [35]: 39% | Activity [15]: 34% | Ki [22]: 2.3 nM | Ki [17]: 0.7 nM | Ki [18]: 0.7 nM

O=C(O)[C@@H]1C[C@H]2C[C@@H](CCc3nn[nH]n3)CC[C@H]2CN1 [TEZAMPANEL ANHYDROUS]
IC50 [36]: 500 nM | IC50 [37]: 500 nM

Cc1cc(-c2nncc3c(C(C)(C)C)c(OCc4ncnn4C)nn23)no1
Activity [38]: 23% | Activity [35]: -15% | Activity [15]: 4% | Ki [16]: 0.8 nM | Ki [22]: 1.4 nM | Ki [17]: 0.8 nM | Ki [18]: 0.8 nM

N[C@@H](Cn1cc(Cl)c(=O)[nH]c1=O)C(=O)O
EC50 [2]: 2000 nM | EC50 [24]: 2000 nM

Cc1ccc(-c2cc(C(=O)N[C@H](C)c3ccc(F)cn3)cc(-c3ncccc3F)c2)nc1
IC50 [28]: 8000 nM

CCOC(=O)C1=C(COCCN)NC(C)=C(C(=O)OC)C1c1ccccc1Cl (stereo unspecified) [AMLODIPINE]
IC50 [39]: 400 nM
